Test results as given in paper PMC9037349, “Elucidation of molecular interactions of theaflavin monogallate with camel milk lactoferrin: detailed spectroscopic and dynamic simulation studies” (RSC Advances, 2021).

Target: T1, camel milk lactoferrin (Camelus dromedarius, UniProt Q9TUM0)
T1 construct: gene LTF; lactoferrin isolated and purified from camel milk
T1 sequence (Q9TUM0 20-708): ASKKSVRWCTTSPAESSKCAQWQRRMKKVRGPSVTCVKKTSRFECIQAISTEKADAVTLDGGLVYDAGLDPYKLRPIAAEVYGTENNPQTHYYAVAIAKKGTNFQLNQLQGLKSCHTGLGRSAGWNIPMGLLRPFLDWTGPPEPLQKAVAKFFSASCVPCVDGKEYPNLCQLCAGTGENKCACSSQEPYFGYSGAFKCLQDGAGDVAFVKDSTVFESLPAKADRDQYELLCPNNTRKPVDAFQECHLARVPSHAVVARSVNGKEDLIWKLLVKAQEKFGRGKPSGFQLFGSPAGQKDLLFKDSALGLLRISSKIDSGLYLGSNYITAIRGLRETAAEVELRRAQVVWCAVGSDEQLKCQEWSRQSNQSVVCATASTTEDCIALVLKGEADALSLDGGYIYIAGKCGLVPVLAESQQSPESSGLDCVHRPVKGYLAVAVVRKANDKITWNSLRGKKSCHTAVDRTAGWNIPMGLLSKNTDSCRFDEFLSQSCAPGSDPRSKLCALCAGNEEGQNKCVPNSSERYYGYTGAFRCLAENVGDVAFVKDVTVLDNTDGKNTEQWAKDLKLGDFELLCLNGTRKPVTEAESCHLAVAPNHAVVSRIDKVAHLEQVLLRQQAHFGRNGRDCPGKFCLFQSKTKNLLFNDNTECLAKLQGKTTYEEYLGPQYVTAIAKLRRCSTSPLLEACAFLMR
Test: intrinsic fluorescence quenching titration (static; modified Stern-Volmer, […] K), supported by FRET, ANS fluorescence and CD
Format: binding
Settings: read-out: K a × 10^4 (M^-1) (converted)

O=C(O[C@@H]1Cc2c(O)cc(O)cc2O[C@@H]1c1cc(O)c(=O)c2c(O)c(O)cc([C@H]3Oc4cc(O)cc(O)c4C[C@H]3O)c2c1)c1cc(O)c(O)c(O)c1 [theaflavin monogallate]
Kd: 23.4 µM
